Reference: paper PMC4575644 (ACS chemical biology, 2015)

Experiments:
Format in all cases: cell-based
[1] = molecular target: T1, N-acylethanolamine acid amidase (hNAAA) (Homo sapiens, UniProt Q02083); assay: competitive ABPP against probe […] in intact NAAA-HEK293 cells
T1 sequence (Q02083 29-125): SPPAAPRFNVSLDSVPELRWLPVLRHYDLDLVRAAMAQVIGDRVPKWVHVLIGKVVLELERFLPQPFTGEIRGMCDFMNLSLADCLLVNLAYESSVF
T1 sequence (Q02083 126-359): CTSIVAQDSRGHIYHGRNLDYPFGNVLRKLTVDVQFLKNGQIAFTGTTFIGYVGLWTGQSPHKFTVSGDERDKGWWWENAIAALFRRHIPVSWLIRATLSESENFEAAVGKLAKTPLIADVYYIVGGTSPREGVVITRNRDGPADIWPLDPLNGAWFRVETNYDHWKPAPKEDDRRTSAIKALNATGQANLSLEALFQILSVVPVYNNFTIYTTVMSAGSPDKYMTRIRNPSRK

[2] = molecular target: T2, N-acylethanolamine acid amidase (rNAAA) (Rattus norvegicus, UniProt Q5KTC7); assay: enzyme inhibition IC50
T2 sequence (Q5KTC7 34-130): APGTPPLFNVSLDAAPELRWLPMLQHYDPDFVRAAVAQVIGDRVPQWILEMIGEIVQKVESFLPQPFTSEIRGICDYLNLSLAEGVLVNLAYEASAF
T2 sequence (Q5KTC7 131-362): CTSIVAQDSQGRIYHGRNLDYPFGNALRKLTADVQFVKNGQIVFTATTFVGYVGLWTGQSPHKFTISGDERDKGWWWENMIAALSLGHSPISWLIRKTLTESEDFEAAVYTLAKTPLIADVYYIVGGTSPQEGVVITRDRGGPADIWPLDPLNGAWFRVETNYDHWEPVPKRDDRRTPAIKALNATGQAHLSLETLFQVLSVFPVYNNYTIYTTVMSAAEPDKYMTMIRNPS

acid ceramidase (AC) = molecular target: T3, acid ceramidase (AC) (Rattus norvegicus, UniProt Q6P7S1); assay: enzyme inhibition IC50
T3 sequence (Q6P7S1 21-141): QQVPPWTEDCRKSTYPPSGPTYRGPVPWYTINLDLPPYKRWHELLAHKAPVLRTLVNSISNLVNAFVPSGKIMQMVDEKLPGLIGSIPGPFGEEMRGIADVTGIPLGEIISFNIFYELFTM
T3 sequence (Q6P7S1 142-394): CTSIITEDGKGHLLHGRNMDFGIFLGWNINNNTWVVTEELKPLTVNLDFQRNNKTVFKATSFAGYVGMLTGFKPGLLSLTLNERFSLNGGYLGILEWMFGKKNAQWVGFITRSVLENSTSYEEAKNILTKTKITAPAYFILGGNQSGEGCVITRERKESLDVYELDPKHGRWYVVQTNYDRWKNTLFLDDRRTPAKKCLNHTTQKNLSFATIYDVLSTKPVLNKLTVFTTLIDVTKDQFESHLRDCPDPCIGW

Structure (SMILES)	competitive ABPP against probe 1 in intact NAAA-HEK293 cells (40 μM) [1]	IC50 [2] [nM]	IC50 (acid ceramidase (AC)) [nM]
C[C@@H]1OC(=O)[C@@H]1NC(=O)OCCCCCc1ccccc1 [ARN077, 5-phenylpentyl N-[(2S,3R)-2-methyl-4-oxo-oxetan-3-yl]carbamate]	In either case, a decrease in signal intensity was observed, but a more pronounced masking of NAAA was noted	–	–
C#CCCCCCCCCCOC(=O)N[C@H]1CNC1=O [compound 1, undec-10-ynyl N-[(3S)-2-oxoazetidin-3-yl]carbamate]	–	13	1200
